The record followed here is ChEMBL document CHEMBL5390280, “Design, Synthesis, and Biological Evaluation of an Orally Bioavailable, Potent, and Selective ROCK2 Inhibitor for Psoriasis Treatment” (J Med Chem, 2023).

A short description of data set [1]: AUC (0 to t) in Balb/c mouse at 10 mg/kg, iv measured for 0.08 to 24 hrs by LC-MS/MS analysis. Set-up: time upper 24 hrs, time lower 0.08 hrs, dose 10 mg/kg, route iv. It counts as ADME, organism-based. Conditions: in vivo.
Data set [2] has as its system Mus musculus. Briefly: In vivo inhibition of ROCK2 in Balb/c mouse model of IMQ-induced skin inflammation assessed as decrease in pSTAT5+ cells in dorsal skin at 20 to 80 mg/kg, po administered daily for 7 days by high power field microscopy. It counts as functional, organism-based. Conditions: dose 20-80 mg/kg, time 7.0 day.
Data set [3] relates to Mus musculus. Briefly: Anti-inflammatory activity in Balb/c mouse model of IMQ-induced skin inflammation assessed as decrease in IL-17A mRNA level in dorsal skin at 20 to 40 mg/kg, po administered daily for 7 days by RT-qPCR analysis. It counts as functional, organism-based. The following applies: dose 20-40 mg/kg, time 7.0 day. Background: Quantitative PCR measures a nucleic acid by following its amplification.

Data set [4] is described as follows: Chemical stability of compound in PBS at pH 7.4 assessed as compound remaining measured after 10 days. It counts as physicochemical. Conditions: time 10 day, read-out: Stability.
Data set [5] in a line: Solubility in aqueous buffer at pH 7.4. The class given is physicochemical.
The subject of data set [6] is Mus musculus. Briefly: Anti-inflammatory activity in Balb/c mouse model of IMQ-induced skin inflammation assessed as decrease in IL-17F mRNA level in dorsal skin at 20 to 40 mg/kg, po administered daily for 7 days by RT-qPCR analysis. It counts as functional, organism-based. Conditions: dose 20-40 mg/kg, time 7.0 day.
Data set [7] relates to Mus musculus. Briefly: Anti-inflammatory activity in Balb/c mouse model of IMQ-induced skin inflammation assessed as decrease in Ki67+ cells in epidermis of dorsal skin at 80 mg/kg, po administered daily for 7 days by IHC analysis. The following applies: time 7.0 day. It counts as functional, organism-based.
Data set [8] is described as follows: AUC (0 to t) in Balb/c mouse at 40 mg/kg, po measured for 0.08 to 24 hrs by LC-MS/MS analysis. The class given is ADME, organism-based. Set-up: time 0.08-24 hrs, dose 40 mg/kg, route po. Conditions: in vivo.
The subject of data set [9] is Mus musculus. Briefly: Anti-inflammatory activity in Balb/c mouse model of IMQ-induced skin inflammation assessed as decrease in IL-23 mRNA level in dorsal skin at 20 to 40 mg/kg, po administered daily for 7 days by RT-qPCR analysis. It counts as functional, organism-based. Conditions: dose 20-40 mg/kg, time 7.0 day.
A short description of data set [10]: AUC (0 to infinity) in Balb/c mouse at 10 mg/kg, iv measured for 0.08 to 24 hrs by LC-MS/MS analysis. It counts as ADME, organism-based. Set-up: dose 10 mg/kg, time upper 24 hrs, time lower 0.08 hrs, route iv. Conditions: in vivo.
Data set [11] concerns HaCaT. Briefly: Anti-psoriasis effect in KGF-stimulated human HaCaT cells assessed as decrease in elastin level at 2 to 5 uM incubated for 24 hrs by Western blot analysis. Conditions: dose 2-5 µM. It counts as functional, cell-based. (Immunoblotting shows a protein as a band on a membrane.)
Data set [12] relates to Mus musculus. Briefly: Anti-inflammatory activity in Balb/c mouse model of IMQ-induced skin inflammation assessed as reduction in skin roughness at 20 to 80 mg/kg, po administered daily for 7 days. It counts as functional, organism-based. Conditions: dose 20-80 mg/kg, time 7.0 day.
Data set [13] relates to HaCaT. Briefly: Anti-psoriasis effect in KGF-stimulated human HaCaT cells assessed as decrease in pSTAT3 level at 2 to 5 uM incubated for 24 hrs by Western blot analysis. The class given is functional, cell-based. Conditions: dose 2-5 µM.
Data set [14] concerns HaCaT. Briefly: Anti-psoriasis effect in KGF-stimulated human HaCaT cells assessed as decrease in fibronectin level at 2 to 5 uM incubated for 24 hrs by Western blot analysis. The class given is functional, cell-based. Conditions: dose 2-5 µM.

SMILES strings stand for the structures. In brackets after ≈: the same amount, converted by molar mass. Activity calls are given as the source filed them. No cut-off for these calls is given here.

As a reminder, the AUC(0-t) is exposure summed from dosing to a finite time, without extrapolation to infinity. Higher therefore signals more exposure. Usually solubility stands for the concentration that dissolves in the medium under given conditions. Low readings indicate little dissolved substance, high ones much dissolved substance. A word on the AUC(0-inf): it is the area under the concentration-time curve extrapolated to infinity. Higher therefore signals more exposure. Take `Cc1cc(=O)n(-c2cccc(CN[C@H]3CCC[C@H](Nc4ccc5[nH]ncc5c4)C3)c2)cc1F`: the AUC(0-t) in [1] was determined as 1040 ng·h/mL; in data set [8] it was 300 ng·h/mL. Besides, the result in the data set on Mus musculus [2], with Mus musculus [3], in the data set with Mus musculus [6], in the data set on Mus musculus [7], in the data set on Mus musculus [9] and in the data set with HaCaT [11] was Active. For the same compound, the result in the data set on Mus musculus [12], with HaCaT [13] and in the data set on HaCaT [14] was Active. Also, the remaining at 240 h in [4] was 100%. In data set [5], this compound registered a solubility of 193 µg/mL (≈ 433 µM). This compound also showed an AUC(0-inf) in data set [10] of 1060 ng·h/mL.
